As a reminder, the AUC is the area under the concentration-time curve, a measure of exposure.

Data set [1] relates to audiogenic seizures. The experiment in a line: Protective effects against audiogenic seizures in mice. The class given is in vivo. As to conditions: oral; 800 mg./kg. valproic acid equivalent; 30 min after dosing; bell for one minute; groups of 10 mice. How it is done:
The valproic acid equivalent of 800 mg./kg. of each compound was administered by oral intubation in a composition prepared as shown in Example 12 to groups of 10 mice. Thirty minutes after dosing, convulsions were produced by electrically activating a bell for one minute.

The test system of data set [2] is gastro-intestinal tract. As to conditions: cited from earlier work.
The test system of data set [3] is epileptic seizures. As to conditions: stated as background; cited from earlier work.
Data set [4] can be described thus: Valproic acid blood plasma levels after oral intubation in rats. As to conditions: rat, equivalent of 200 mg. valproic acid per animal, mean of 3-18 animals. The class given is in vivo. Here is the method: (§1) The compounds of the present invention were administered to mice and rats by oral intubation. A vehicle of 0.5% aqueous methylcellulose containing one drop of a polyethylene sorbitan monooleate was used to suspend the above compounds. In the case of Example 1, the compound was first ground in a tissue-homogenizer followed by mixing in a Waring blender. The results are shown in Table I expressed in mcg. of valproic acid per ml. of blood plasma at specified times.

Data set [5] in a line: Valproic acid blood plasma levels after oral intubation in mice. As to conditions: mouse, equivalent of 200 mg. valproic acid per animal, mean of 3-18 animals. The class given is in vivo. How it is done: as §1
The nature of data set [6]: Absorption profiles and area-under-the-curve in beagle dog. The class given is in vivo. As to conditions: blood, single oral dose 24.9 mg./kg. valproic acid equivalent. How it is done: Since it is possible that the new compounds are not absorbed as quickly as valproic acid itself, absorption profiles and area-under-the-curve (AUC) values were calculated for valproic acid, glyceride trivalproate and representatives of the current compounds. The phrase AUC values represents the total quantity of the compound which is absorbed by the blood during the time periods referred to in Table III expressed in mcg./ml. A beagle dog received a single oral dose of 24.9 mg./kg. valproic acid equivalent in a composition prepared as shown in Example 12. The blood concentrations are shown in Table III as mcg./ml. while the AUC values are expressed as hr.×mcg./ml.

For the compound `CCCC(CCC)C(=O)OCC(O)CO` (racemic) [Example 6, 1-Valproyl-glycerol], in data set [1], the “Percentage of Mice Exhibiting Seizures, Any Type” value (shortened to “Percentage … Any Type”) is 50% and the “Percentage of Mice Exhibiting Seizures, Tonic Extension” value (“Percentage … Tonic Extension” for short) turned out to be 10%.

Take `CCCC(CCC)C(=O)OC(COC(C)=O)COC(C)=O` [Example 5, 1,3-Diacetyl-2-valproyl-glyceride]: in data set [1], the “Percentage … Any Type” value stood at 50% and the “Percentage … Tonic Extension” value was found to be 10%.

On to `CCCC(CCC)C(=O)OCC(COC(=O)C(CCC)CCC)OC(=O)C(CCC)CCC` [Glycerol trivalproate], for which, in data set [1], the “Percentage … Any Type” value came to 100% and the “Percentage … Tonic Extension” value was found to be 80%. Moreover, the adverse side effects entry in data set [2] (reported by Meijer and Meinardi, 1975) is “no adverse side effects”. For the same compound, in data set [3], the therapeutic value result is on record as “substantially no therapeutic value”.

For the compound `CCCC(CCC)C(=O)O` [Valproic Acid, 2-propylpentanoic acid], the “Percentage … Any Type” value in data set [1] was determined as 50%. Also, the “Percentage … Tonic Extension” value in data set [1] is on record as 10%. Further, the “gastro-intestinal irritation in patients” value in data set [2] (patients using valproic acid) is 9-16%. Moreover, the concentration at 0.5 h in data set [4] (0.5 hrs.) turned out to be 84100 ng/mL; in data set [5] (0.5 hrs.) it was 134000 ng/mL; in data set [6] (0.5 hrs.), 65600 ng/mL. In addition, the concentration at 1.5 h in data set [4] (1.5 hrs.) was found to be 27500 ng/mL; in data set [5] (1.5 hrs.) it was 72000 ng/mL. Moreover, the concentration at 1 h in data set [6] (1 hr.) is 40800 ng/mL. The concentration at 2 h in data set [6] (2 hrs.) was determined as 9000 ng/mL. In addition, the concentration at 4 h in data set [6] (4 hrs.) came to 2600 ng/mL. The concentration at 6 h in data set [6] (6 hrs.) worked out at 1300 ng/mL. Also, the AUC at 8 h in data set [6] (8 hrs.) came to 82200 ng·h/mL.

The values are drawn from US4654370A, “Glyceryl valproates” (Abbott Laboratories, priority 1980, dated 1987).
